Test results taken from patent US20210260225A1, “PROTECTION OF BIOLOGICALLY ACTIVE MOLECULES DURING RADIATION STERILIZATION” (Qiagen Sciences LLC, priority 2018, published 2021).

Assays:
[1] = test system: white blood cells present in human whole blood samples; test: QFM (anti-CD3 + R848) stimulatory activity after E-beam irradiation (IFN-γ release in whole blood, ELISA); type: cell-based; conditions: for Protection of stimulatory activities of anti-CD3 and R848 against E-beam (FIG. 8): 10 mM Cys or 3.0 mM G-SH, E-beam irradiated; for Protective effect on combined anti-CD3 and R848 activity, titration of radioprotectant (FIG. 9): 25 kGy E-beam, radioprotectant 1.0 to 10 mM
Experimental: (§1) Following incubation with the QFM samples in the QFN tubes, whole blood sample processing, plasma harvesting and IFN-γ ELISA were performed according to the QuantiFERON®-TB Gold Plus package insert (QFN-TB Gold Plus, QIAGEN, Inc., Germantown, Md.) except that the plasma samples were diluted 1:10 in ELISA kit Green Diluent immediately before testing on 8-point standard curves.

[2] = test system: T-cells present in a whole human blood sample; test: Anti-CD3 antibody T-cell stimulatory activity after E-beam irradiation (IFN-γ secretion in whole blood, ELISA); type: cell-based; conditions: for Protection of anti-CD3 antibody stimulatory activity against E-beam (FIG. 4): 10 mM Cys or 3.0 mM G-SH in DPBS, E-beam doses up to 25 kGy; for Protective effect on anti-CD3 activity, titration of radioprotectant (FIG. 5): 25 kGy E-beam, radioprotectant 1.0 to 10 mM
Experimental: Anti-CD3 antibody samples were dissolved in Dulbecco's phosphate-buffered saline (DPBS) and diluted to a concentration of 66.7 μg/mL, then exposed to various doses of E-beam irradiation in the presence or absence of 10 mM cysteine (Cys) or 3 mM glutathione (G-SH). The treated antibody samples were tested for their T-cell stimulatory activity by determining their ability to induce interferon-gamma (IFNγ) secretion by T-cells present in a whole human blood sample obtained from a group of six randomly selected donors, using 0.10 μg of anti-CD3 antibody per mL of whole blood in QuantiFERON® (QFN) Nil tubes (QIAGEN, Inc., Germantown, Md.). Following the incubation of the whole blood samples with the anti-CD3 antibody in the QFN Nil tubes, blood processing, plasma harvesting and IFN-γ detection by enzyme-linked immunosorbent assay (ELISA) were performed according to the manufacturer's instructions as found in the QuantiFERON®-TB Gold Plus package insert (QFN-TB Gold Plus, QIAGEN, Inc., Germantown, Md.) except that the plasma samples were diluted 1 to 10 in ELISA kit Green Diluent immediately before testing on 8-point standard curves.

[3] = test system: white blood cells present in human whole blood samples; test: Pokeweed mitogen activity after E-beam irradiation (IFN-γ release in whole blood, ELISA); type: cell-based; conditions: for Protection of PWM stimulatory activity against E-beam (FIG. 10): 10 mM Cys or 3.0 mM G-SH, E-beam irradiated; for Protective effect on PWM activity, titration of radioprotectant (FIG. 11): 25 kGy E-beam, radioprotectant 1.0 to 10 mM
Experimental: Pokeweed Mitogen (PWM) samples were dissolved in DPBS at a concentration of 33.3 μg/mL and treated with various doses of E-beam irradiation in the presence or absence of 10 mM cysteine (Cys) or 3 mM glutathione (G-SH). The treated PWM samples were tested for their biological activity (ability to elicit IFNγ release during an in vitro incubation) on white blood cells present in human whole blood samples, collected from a group of six randomly selected donors, using 1.0 μg of PWM per mL of whole blood in QFN Nil tubes. Following incubation with the PWM samples in the QFN tubes, whole blood sample processing, plasma harvesting and IFN-γ ELISA were performed according to the QuantiFERON®-TB Gold Plus package insert (QFN-TB Gold Plus, QIAGEN, Inc., Germantown, Md.) except that the plasma samples were diluted 1:10 in ELISA kit Green Diluent immediately before testing on 8-point standard curves.

[4] = test system: white blood cells present in human whole blood samples; test: R848 TLR agonist (NK cell stimulatory) activity after E-beam irradiation (IFN-γ release in whole blood, ELISA); type: cell-based; conditions: for Protection of R848 stimulatory activity against E-beam (FIG. 6): 10 mM Cys or 3.0 mM G-SH, E-beam treated; for Protective effect on R848 activity, titration of radioprotectant (FIG. 7): 25 kGy E-beam, radioprotectant 1.0 to 10 mM
Experimental: as §1, with “R848 (resiquimod, CAS 144875-48-9) is a toll-like receptor (TLR) agonist which can stimulate biological responses by natural killer (NK) cells, and its activity can be measured in the […] tubes (QIAGEN, Inc., Germantown, Md.) QFN whole blood culture system. […] Following” for “Following”, “R848” for “QFM”

[5] = test system: white blood cells present in human whole blood samples; test: Concanavalin A activity after E-beam irradiation (IFN-γ release in whole blood, ELISA); type: cell-based; conditions: for Protection of ConA stimulatory activity against E-beam (FIG. 12): 10 mM Cys or 3.0 mM G-SH, E-beam irradiated; for Protective effect on ConA activity, titration of radioprotectant (FIG. 13): 25 kGy E-beam, radioprotectant 1.0 to 10 mM
whole blood samples [6] = test: Mitogenic activity of PHA-P formulation with radioprotectant additives, with or without E-Beam (IFN-γ secretion, QuantiFERON ELISA); type: cell-based, human; conditions: for Group Mean Percentage of Mitogenic Activity: additive 5.0 mM, vs untreated control without additives; for Group Mean Percentage of Mitogenic Activity / Concentration-dependent protection of PHA-P mitogenic activity (FIG. 1) / PHA-P Formulation Potency with Additives: 6 donors; for Concentration-dependent protection of PHA-P mitogenic activity (FIG. 1): E-beam 25 kGy in solution, cysteine 1.0-50 mM, melatonin 0.2-10 mM; for PHA mitogenic activity, % of PHA control formulation (FIG. 1): E-Beam 25 kGy, control without additive and without sterilization; for PHA-P Formulation Potency with Additives: no irradiation, vs same formulation without additives (100%)
Experimental: Cysteine (closed circles) and melatonin (open circles) were dissolved in the same PHA-P formulation to various final concentrations. The mitogenic activities were determined by measuring IFN-γ secretion in whole blood samples from six blood donors using QuantiFERON® ELISA according to the manufacturer's instructions (QIAGEN, Inc., Germantown, Md.). Group mean percentages of mitogenic activity over controls (PHA-P alone without any additives) are presented.
L-cysteine was dissolved in a PHA-P formulation to 1.0-50 mM. Due to its lower water solubility, melatonin stock solution at 200 mM was first prepared in 100% ethyl alcohol. The stocks were then added into the PHA-P formulation to make final concentrations from 0.2-10 mM. After the E-Beam treatment, potencies of PHA-P formulations were tested with whole blood samples and mitogenic activity was determined using QuantiFERON® ELISA (QIAGEN, Inc., Germantown, Md.) according to the manufacturer's instructions.

whole blood samples [7] = test: as above; type: cell-based, human; conditions: E-Beam 0.0 kGy; additive 5.0 mM; vs untreated control without additives; 6 donors
whole blood samples [8] = test: Storage stability of mitogenic activity of radiation sterilized spray-dried PHA tubes with or without cysteine; type: cell-based, human; conditions: 5.0 mM cysteine; E-Beam sterilized; subsequent time points extending beyond eight months post-production
Experimental: QuantiFERON® Mitogen Control blood collection tubes were produced with and without cysteine (5.0 mM final concentration in liquid mitogen formulation) and sterilized with E-Beam radiation. Mitogen tubes' biological (mitogenic) activities were tested over time and are presented as % potency differences of the activity of mitogen tubes formulated with cysteine compared to mitogen tubes formulated without cysteine. Each dot in the figure represents the % activity of group mean at each time point.
Mitogen (spray-dried PHA) tubes were produced and radiation sterilized as described in Example 1, comparing PHA preparations without added cysteine to PHA preparations containing 5.0 mM cysteine. The long-term storage stability of the radioprotective effect of cysteine on the mitogenic activity of spray-dried PHA was also assessed.
Following spray-drying and radiation sterilization the tubes were held for various time periods before being tested for mitogenic activity as described previously.

whole blood samples [9] = test: Mitogenic potency of spray-dried PHA in QuantiFERON Mitogen Control blood collection tubes after radiation sterilization (IFN-γ by QuantiFERON ELISA); type: cell-based, human; conditions: for PHA mitogenic response, % of control (FIG. 2): control: no radioprotectant, no sterilization, 8 donors
[10] = spray-dried tubes after radiation sterilization, cysteine 5 mM where present

Row | Compound | Protection of stimulatory activities of anti-CD3 and R848 against E-beam (FIG. 8) [1] | Protective effect on combined anti-CD3 and R848 activity, titration of radioprotectant (FIG. 9) [1] | Protection of anti-CD3 antibody stimulatory activity against E-beam (FIG. 4) [2] | Protective effect on anti-CD3 activity, titration of radioprotectant (FIG. 5) [2] | Protection of PWM stimulatory activity against E-beam (FIG. 10) [3] | Protective effect on PWM activity, titration of radioprotectant (FIG. 11) [3] | Protection of R848 stimulatory activity against E-beam (FIG. 6) [4] | Protective effect on R848 activity, titration of radioprotectant (FIG. 7) [4] | Protection of ConA stimulatory activity against E-beam (FIG. 12) [5] | Protective effect on ConA activity, titration of radioprotectant (FIG. 13) [5] | Group Mean Percentage of Mitogenic Activity (whole blood samples [6]; E-Beam 8.30 kGy) | Group Mean Percentage of Mitogenic Activity (whole blood samples [6]; E-Beam 16.7 kGy) | Group Mean Percentage of Mitogenic Activity (whole blood samples [6]; E-Beam 25.0 kGy) | Group Mean Percentage of Mitogenic Activity (whole blood samples [7]) | Concentration-dependent protection of PHA-P mitogenic activity (FIG. 1) (whole blood samples [6]) | PHA mitogenic response, % of control (FIG. 2) (whole blood samples [9]; [10]) | further results
1 | N[C@@H](CS)C(=O)O (stereo in doubt) [L-Cysteine, 2-amino-3-sulfhydrylpropanoic acid] | preserved | dose-dependent increase | maintained stimulatory activities | dose-dependent increase | preserved | dose-dependent increase | retained the stimulatory activities | dose-dependent increase | preserved | dose-dependent increase |  |  |  |  |  |  | 
2 | N[C@@H](CCC(=O)N[C@@H](CS)C(=O)NCC(=O)O)C(=O)O [Glutathione Reduced, γ-L-Glutamyl-L-cysteinylglycine] | preserved | dose-dependent increase | maintained stimulatory activities | dose-dependent increase | preserved | dose-dependent increase | retained the stimulatory activities | dose-dependent increase | preserved | dose-dependent increase | 53% | 23% | 10% | 116% |  |  | Group Mean Percentage of Mitogenic Activity (whole blood samples [6]; E-Beam 8.30 kGy, listed as reduced glutathione): 53%
3 | N[C@@H](CS)C(=O)O [L-Cysteine, 2-amino-3-sulfhydrylpropanoic acid] |  |  |  |  |  |  |  |  |  |  | 68% | 43% | 26% | 99% | dose dependent protection | 72% | Mitogenic activity of tubes with cysteine compared to tubes without cysteine (FIG. 3) (whole blood samples [8]): retained relatively higher levels of mitogenic activity; Group Mean Percentage of Mitogenic Activity (whole blood samples [6]; E-Beam 8.30 kGy, listed as L-cysteine): 68%; PHA mitogenic activity, % of PHA control formulation (FIG. 1) (whole blood samples [6]; additive 1.0 mM): 5.9%; PHA mitogenic activity, % of PHA control formulation (FIG. 1) (whole blood samples [6]; additive 10 mM): 38%; PHA-P Formulation Potency with Additives (whole blood samples [6]; additive 50 mM): 101%; PHA-P Formulation Potency with Additives (whole blood samples [6]; additive 50 mM, listed as cysteine): comparable to unsupplemented PHA preparations; PHA mitogenic response, % of control (FIG. 2) (whole blood samples [9]; spray-dried tubes, cysteine 5 mM, no radiation sterilization): 94.8%
4 | COc1ccc2[nH]cc(CCNC(C)=O)c2c1 [Melatonin, N-acetyl-5-methoxy tryptamine, reference compound] |  |  |  |  |  |  |  |  |  |  | 53% | 26% | 7.7% | 111% | dose dependent protection |  | Group Mean Percentage of Mitogenic Activity (whole blood samples [6]; E-Beam 8.30 kGy, listed as melatonin): 53%; PHA-P Formulation Potency with Additives (whole blood samples [6]; additive 10 mM): 98.6%; PHA-P Formulation Potency with Additives (whole blood samples [6]; additive 10 mM, listed as melatonin): comparable to unsupplemented PHA preparations
5 | phytohemagglutinin [PHA] |  |  |  |  |  |  |  |  |  |  |  |  |  |  |  | 56% | Mitogenic Potency after Tx, E-Beam (whole blood samples [9]; E-beam 16.6-30 kGy, group mean of 11 donors vs same lot of tubes without treatment (100%)): about 55%
